From patent US6380134B1, “N-pyridyl herbicide compounds” (Syngenta Crop Protection, Inc., priority 1998, dated 2002)
Where “and” joins values, the source holds several entries; their conditions need not be identical. Equal values may be shown once.

What was measured:
Stellaria [1] = assay: Herbicidal action before plant emergence (pre-emergence action); format: in vivo; design: key: 1=complete damage; 9=no effect; Score figures of 1 to 4 (in particular 1 to 3) signify a good to very good herbicidal action; conditions: 2000 g a.i./ha sprayed immediately after sowing; evaluated after 3 weeks; nine-level key (1=complete damage, 9=no effect)
Description: (§1) Monocotyledonous and dicotyledonous test plants are sown in standard soil in plastic pots. Immediately after sowing, the test substances are sprayed on as aqueous suspensions (prepared from a 25% strength wettable powder (Example F3, b) in accordance with WO 97/34485) or as emulsions (prepared from a 25% strength emulsion concentrate (Example F1, c) in accordance with WO 97/34485), corresponding to a dosage of 2 kg of a.i./ha (500 l of water/ha). The test plants are subsequently grown in the greenhouse under optimal conditions. After a test period of 3 weeks, the experiment is evaluated using a nine-level key (1=complete damage, 9=no effect). Score figures of 1 to 4 (in particular 1 to 3) signify a good to very good herbicidal action.
(§2) Test plants: Lolium, Setaria, Sinapis, Solanum, Stellaria, Ipomea.

Lolium [2] = assay: as above; format: in vivo; design: key: 1=complete damage; 9=no effect; Score figures of 1 to 4 (in particular 1 to 3) signify a good to very good herbicidal action; conditions: 2000 g a.i./ha sprayed immediately after sowing; evaluated after 3 weeks; nine-level key (1=complete damage, 9=no effect)
Description: as §1, §2

Sinapis [3] = assay: as above; format: in vivo; design: key: 1=complete damage; 9=no effect; Score figures of 1 to 4 (in particular 1 to 3) signify a good to very good herbicidal action; conditions: 2000 g a.i./ha sprayed immediately after sowing; evaluated after 3 weeks; nine-level key (1=complete damage, 9=no effect)
Description: as §1, §2

Setaria [4] = assay: as above; format: in vivo; design: key: 1=complete damage; 9=no effect; Score figures of 1 to 4 (in particular 1 to 3) signify a good to very good herbicidal action; conditions: 2000 g a.i./ha sprayed immediately after sowing; evaluated after 3 weeks; nine-level key (1=complete damage, 9=no effect)
Description: as §1, §2

Ipomoea [5] = assay: as above; format: in vivo; design: key: 1=complete damage; 9=no effect; Score figures of 1 to 4 (in particular 1 to 3) signify a good to very good herbicidal action; conditions: 2000 g a.i./ha sprayed immediately after sowing; evaluated after 3 weeks; nine-level key (1=complete damage, 9=no effect)
Description: as §1, §2

Solanum [6] = assay: as above; format: in vivo; design: key: 1=complete damage; 9=no effect; Score figures of 1 to 4 (in particular 1 to 3) signify a good to very good herbicidal action; conditions: 2000 g a.i./ha sprayed immediately after sowing; evaluated after 3 weeks; nine-level key (1=complete damage, 9=no effect)
Description: as §1, §2

Stellaria [7] = assay: Post-emergence herbicidal action; format: in vivo; design: key: 1=complete damage; 9=no effect; Score figures of 1 to 4 (in particular 1 to 3) signify a good to very good herbicidal action; conditions: dose 2000 g a.i./ha; sprayed at 4- to 6-leaf stage; evaluated after approximately 18 days; nine-level key (1=complete damage, 9=no effect)
Experimental: (§3) Monocotyledonous and dicotyledonous test plants are grown in the greenhouse in plastic pots containing standard soil and, in the 4- to 6-leaf stage, sprayed with an aqueous suspension of the test substances of the formula I, prepared from a 25% strength wettable powder (Example F3, b) in accordance with WO 97/34485) or with an emulsion of the test substances of the formula I, prepared from a 25% strength emulsion concentrate (Example F1, c) in accordance with WO 97/34485), corresponding to a dosage of 2 kg/ a.i./ha (500 l of water/ha). The test plants are subsequently grown on in the greenhouse under optimal conditions. After a test period of approximately 18 days, the experiment is evaluated using a nine-level key (1=complete damage, 9=no effect). Score figures of 1 to 4 (in particular 1 to 3) signify a good to very good herbicidal action.
as §2

Lolium [8] = assay: Post-emergence herbicidal action; format: in vivo; design: key: 1=complete damage; 9=no effect; Score figures of 1 to 4 (in particular 1 to 3) signify a good to very good herbicidal action; conditions: dose 2000 g a.i./ha; sprayed at 4- to 6-leaf stage; evaluated after approximately 18 days; nine-level key (1=complete damage, 9=no effect)
Experimental: as §3, §2

Sinapis [9] = assay: Post-emergence herbicidal action; format: in vivo; design: key: 1=complete damage; 9=no effect; Score figures of 1 to 4 (in particular 1 to 3) signify a good to very good herbicidal action; conditions: dose 2000 g a.i./ha; sprayed at 4- to 6-leaf stage; evaluated after approximately 18 days; nine-level key (1=complete damage, 9=no effect)
Experimental: as §3, §2

Setaria [10] = assay: Post-emergence herbicidal action; format: in vivo; design: key: 1=complete damage; 9=no effect; Score figures of 1 to 4 (in particular 1 to 3) signify a good to very good herbicidal action; conditions: dose 2000 g a.i./ha; sprayed at 4- to 6-leaf stage; evaluated after approximately 18 days; nine-level key (1=complete damage, 9=no effect)
Experimental: as §3, §2

Ipomoea [11] = assay: Post-emergence herbicidal action; format: in vivo; design: key: 1=complete damage; 9=no effect; Score figures of 1 to 4 (in particular 1 to 3) signify a good to very good herbicidal action; conditions: dose 2000 g a.i./ha; sprayed at 4- to 6-leaf stage; evaluated after approximately 18 days; nine-level key (1=complete damage, 9=no effect)
Experimental: as §3, §2

Solanum [12] = assay: Post-emergence herbicidal action; format: in vivo; design: key: 1=complete damage; 9=no effect; Score figures of 1 to 4 (in particular 1 to 3) signify a good to very good herbicidal action; conditions: dose 2000 g a.i./ha; sprayed at 4- to 6-leaf stage; evaluated after approximately 18 days; nine-level key (1=complete damage, 9=no effect)
Experimental: as §3, §2

SMILES	Pre-emergence action, score, test plant Stellaria (Stellaria [1])	Pre-emergence action, score, test plant Lolium (Lolium [2])	Pre-emergence action, score, test plant Sinapis (Sinapis [3])	Pre-emergence action, score, test plant Setaria (Setaria [4])	Pre-emergence action, score, test plant Ipomoea (Ipomoea [5])	Pre-emergence action, score, test plant Solanum (Solanum [6])	Post-emergence action, score, Stellaria (Stellaria [7])	Post-emergence action, score, Lolium (Lolium [8])	Post-emergence action, score, Sinapis (Sinapis [9])	Post-emergence action, score, Setaria (Setaria [10])	Post-emergence action, score, Ipomoea (Ipomoea [11])	Post-emergence action, score, Solanum (Solanum [12])	melting point
CCOc1nc(-n2c(=O)cc(C(F)(F)F)n(C)c2=O)c(F)cc1Cl [1.017]	1	1	1	1	1	1	1	1	1	1	1	1	–
COc1nc(-n2c(=O)cc(C(F)(F)F)n(C)c2=O)c(F)cc1Cl [1.016]	1	1	1	1	1	1	1	1	1	1	1	1	–
N#Cc1cc(F)c(N2C(=O)C3CCCCN3C2=O)nc1Cl (stereo not drawn) [Example H8, 2-(3-fluoro-6-chloro-5-cyano-2-pyridyl)tetrahydroimidazo[1,5-a]pyridine-1,3-dione]	–	–	–	–	–	–	–	–	–	–	–	–	192 to 193 °C
C#CCOc1nc(-n2c(=O)cc(C(F)(F)F)n(C)c2=O)c(F)cc1Cl [1.022, 1-(2-propargyloxy-3-chloro-5-fluoropyridine-6-yl)-3-methyl-4-trifluoromethylpyrimidine-2,6-dione]	1	1	1	1	1	1	1	1	1	1	1	1	121 to 122 °C and 119 to 121 °C
Cn1c(C(F)(F)F)cc(=O)n(-c2nc(OCOCc3ccccc3)c(Cl)cc2F)c1=O [1.025]	3	3	1	1	1	1	1	1	1	3	1	1	–
C=CCOc1nc(-n2c(=O)cc(C(F)(F)F)n(C)c2=O)c(F)cc1Cl [1.020]	1	1	1	1	1	1	1	1	1	1	1	1	–
Cn1c(C(F)(F)F)cc(=O)n(-c2nc(O)c(Cl)cc2F)c1=O [1.002, 1-(2-hydroxy-3-chloro-5-fluoropyridine-6-yl)-3-methyl-4-trifluoromethylpyrimidine-2,6-dione]	5	7	1	1	1	1	5	6	2	5	1	1	200 to 202 °C
C=CCOC(=O)C(C)(C)Oc1nc(-n2c(=O)cc(C(F)(F)F)n(C)c2=O)c(F)cc1Cl [1.402]	1	1	1	1	4	1	1	1	1	1	1	1	–
